Source: PMC11109052, “Metabolism characterization and toxicity of N-hydap, a marine candidate drug for lung cancer therapy by LC–MS method” (Natural Products and Bioprospecting, 2024)

What was measured:
[1] = test system: HLMs (UGT reaction); test: Metabolic stability in HLMs, UGT reaction (glucuronidation); type: in vitro ADME, human; conditions: for percentage of N-hydap remaining: HLMs, glucuronidation reaction
Protocol: (§1) Various microsomes including HLMs, HKMs, HIMs, RLMs, RKMs, MLMs and MKMs were involved in CYP and UGT reactions of N-hydap. A typical CYP incubation mixture included 0.5 mg/mL microsomes protein, 3.3 mM glucose-6-phosphate, 3.3 mM MgCl2, 0.4 U/mL glucose-6-phosphate dehydrogenase, and N-hydap (1, 2.5, or 10 μM) in the 50 mM potassium phosphate buffer (KPI, pH 7.4). The incubation mixture was preincubated at 37 °C for 5 min, and the reaction was started by adding NADP to form a NADPH-regenerating system. Simultaneously, the classic UGT reaction system consisted of 50 mM KPI, 5 mM MgCl2, 0.5 mg/mL microsomes, 0.125 mg/mL alamethicin, and 5.25 mg/mL saccharolactone. The reaction was initiated after supplying UDPGA. The CYP and UGT mixtures were incubated at 37 °C in a shaking water bath (80 rpm) for 1.5 h to enhance metabolite formation. To terminate the reaction, an ice-cold solution of Tes (50 ng/mL, dissolved in methanol and used as an internal standard) was added to half of the mixture volume. The mixture was vortexed for 30 s and then centrifuged at 13,000 rpm for 15 min to eliminate any precipitated protein. The resulting supernatant was transferred to autosampler vials, and 5 μL was injected into the LC–MS system. All reactions were conducted in triplicate.
(§2) The identical concentration of HLMs was utilized for both the CYP reaction and UGT reaction. At predetermined time intervals of 0, 15, 30, and 60 min, 100 µL samples were taken from the reaction volumes. To halt the reaction, 50 µL of 50 ng/mL Tes was added. Samples were analyzed using LC–MS to compare the remaining level of N-hydap between the CYP reaction and UGT reaction. T1/2 and CLint (in vivo) (mL/min/kg) were calculated as reported previously:
(§3) T1/2=0.693/k, where k represents the slope of the line derived from plotting the natural logarithm of the percentage (Ln %) of N-hydap remaining in the reaction mixture against the incubation time (minutes).
(§4) CLintinvivo=0.693/invitroT1/2×mLincubation/mgmicrosomes×45mgmicrosomes/gliver×20gliver/kgbodyweight.

[2] = as above; type: in vitro ADME, human; conditions: human, human liver microsomes (UGT reaction), pH 7.4, HLMs, UGT reaction
Protocol: as §1, §2, §3, §4

[3] = test system: CYP2D6; test: DME activity ex vivo in MLMs and MKMs: CYP2D6 (DXO from DM); set-up: species or system mice; key to CYP2D6 Enzymatic activity: ↑: up-regulation; ↓: down-regulation; –: no change
Protocol: Mice were randomly divided into four groups, with eight animals in each group. The mice received oral pretreatment with N-hydap for 7 days at doses of 2, 5, and 10 mg/kg/day, which were considered as the low dose, medium dose, and high dose, respectively. Correspondingly, the control group received PBS. On the 8th day, the liver and kidneys were removed, and organs from eight mice per group were combined to prepare MLMs and MKMs using the detailed procedures above. Subsequently, we determined the activity of CYP and UGT enzymes by specific substrate metabolized with MLMs (0.5 mg/mL) and MKMs (0.2 mg/mL) in vitro. Specifically, the following selective substrates were used for the respective enzymes: PH (1 μM) for CYP1A2, DIC (1 μM) for CYP2C9, MP (90 μM) for CYP2C19, DM (1 μM) for CYP2D6, CZX (10 μM) for CYP2E1, Tes (1 μM) for CYP3A4, SN38 (1 μM) for UGT1A1, CACD (100 μM) for UGT1A3, Sero (20 μM) for UGT1A6, and Prop (1 μM) for UGT1A9. All substrates were dissolved in methanol or DMSO. The incubation procedure was carried out as mentioned above, and the reaction was terminated with VER (20 ng/mL) in ESI+ mode and CLP (200 ng/mL) in ESI− mode. In the ex vivo experiments, the activity of enzymes was measured by quantifying the production of various metabolites (nM/mg protein/min). The metabolites and their corresponding enzymes are as follows: APAP from PH, 4-OH-DIC from DIC, 4-OH-MP from MP, DXO from DM, 6-OH-CZX from CZX, 6-OH-Tes from Tes, SN38-G from SN38, CACD-G from CACD, Sero-G from Sero, Prop-G from Prop. The measurements were performed using multiple reaction monitoring (MRM) transitions, which are specific mass spectrometry transitions used for quantification. The optimized parameters for each metabolite, such as declustering potential and collision energy, were described in Supplementary Table 1. All experiments were conducted in triplicate, to ensure accuracy and reproducibility.

[4] = test system: Cyp1a2; test: Real-time PCR mRNA level after 7 days gavage: Cyp1a2; type: in vivo; conditions: mice, 2, 5, 10 mg/kg p.o. 7 days; kidneys
Protocol: Mice were randomly divided into four groups, with eight animals in each group. The mice received oral pretreatment with N-hydap for 7 days at doses of 2, 5, and 10 mg/kg/day, which were considered as the low dose, medium dose, and high dose, respectively. Correspondingly, the control group received PBS. On the 8th day, the liver and kidneys were removed, and organs from eight mice per group were combined to prepare MLMs and MKMs using the detailed procedures above. Subsequently, we determined the activity of CYP and UGT enzymes by specific substrate metabolized with MLMs (0.5 mg/mL) and MKMs (0.2 mg/mL) in vitro. […] In the ex vivo experiments, the activity of enzymes was measured by quantifying the production of various metabolites (nM/mg protein/min). […] The measurements were performed using multiple reaction monitoring (MRM) transitions, which are specific mass spectrometry transitions used for quantification. […]
Total RNA from liver and kidney samples taken after 7 days of N-hydap gavage was extracted using the Animal Total RNA Isolation Kit (Foregene, Chengdu, Sichuan, China) following the manufacturer’s instructions. The concentrations of total RNA were determined by a nucleic acid concentration tester at 260/280 nm. […]

[5] = Metabolic stability in HLMs, CYP reaction; type: in vitro ADME, human; conditions: human, human liver microsomes (CYP reaction), pH 7.4, HLMs, CYP reaction
Protocol: as §1, §2, §3, §4

[6] = test system: HLMs (CYP reaction); test: Metabolic stability in HLMs, CYP reaction; type: in vitro ADME, human; conditions: for remaining percentage of N-hydap: HLMs, CYP reaction
Protocol: as §1, §2, §3, §4

[7] = extrapolated from in vitro T1/2, read-out: CLint (in vivo)

Structure (SMILES): CC1CCC2C(C=CC(C)C2C(=O)c2c(O)c(C3(O)CCC(O)C4OC43)cn(O)c2=O)C1 (centres unmarked) [N-hydap, N-Hydroxyapiosporamide]
- percentage of N-hydap remaining ([1]; 15 min): 47.84%
- percentage of N-hydap remaining ([1]; 30 min): 40.44%
- UGT catelyzed, experimental results ([1]; Table 4 experimental column): Yes
- Phase II metabolism, experimental results ([1]; Table 4 experimental column, microsomes): Glucuronidation
- eliminated by UGTs ([1]; various microsomes, after 1 h): ~70%
- half-life [2]: 2.16 h
- CLint scaled [2, 7]: 48.2 mL/min/kg
- CYP2D6 Enzymatic activity ([3]; Kidney): ↑
- CYP2D6 Enzymatic activity ([3]; Liver): ↓
- CYP2D6 inhibitor, experimental results ([3]; Table 4 experimental column): Inhibition in the liver
- reduction of formation rate of DXO vs control ([3]; liver microsomes of mice pretreated 7 days p.o.): 54%
- decrease of mRNA levels of Cyp1a2 [4]: 48%
- half-life [5]: 2.98 h
- CLint scaled [5, 7]: 34.9 mL/min/kg
- remaining percentage of N-hydap ([6]; 15 min): 64.43%
- remaining percentage of N-hydap ([6]; 30 min): 58.02%
- eliminated by CYPs ([6]; various microsomes, after 1 h): about 50%
